Laboratory results reported in the NIST ThermoML archive (doi:10.1021/je800047t).
Values joined by “and” are separate entries in the source; they are usually repeats but may differ in a detail not shown here. Equal entries are not always repeated.

Assay: molar heat capacity at constant pressure
Conditions: 101.33 kPa, Small sample (50 mg) DSC

O[C@@H]1CCCC[C@@H]1O [cis-1,2-cyclohexanediol]
Conditions	molar heat capacity at constant pressure
174.3 K, Crystal 2	89.6 J/K/mol
185.2 K, Crystal 2	92.7 J/K/mol
193.1 K, Crystal 2	100 J/K/mol
202.2 K, Crystal 2	101.1 J/K/mol
215.9 K, Crystal 2	111 J/K/mol
230.1 K, Crystal 2	121.1 J/K/mol
248.1 K, Crystal 2	127.3 J/K/mol
259.2 K, Crystal 2	134.9 J/K/mol
266.2 K, Crystal 2	138.2 J/K/mol
273.1 K, Crystal 2	141.4 J/K/mol
278.2 K, Crystal 2	148.8 J/K/mol
283 K, Crystal 2	151.1 J/K/mol
288.2 K, Crystal 2	152 J/K/mol and 154.2 J/K/mol
293.2 K, Crystal 2	157.8 J/K/mol and 157.6 J/K/mol
298.1 K, Crystal 2	160.4 J/K/mol
300.2 K, Crystal 2	162 J/K/mol and 163.9 J/K/mol
308.2 K, Crystal 2	168 J/K/mol and 166.4 J/K/mol
316 K, Crystal 2	171.9 J/K/mol
323.3 K, Crystal 2	175 J/K/mol
328.2 K, Crystal 2	177.2 J/K/mol
333.2 K, Crystal 2	180.8 J/K/mol
339.2 K, Crystal 2	184.3 J/K/mol
344.1 K, Crystal 2	186.2 J/K/mol
346.3 K, Crystal 2	190 J/K/mol
348.1 K, Crystal 2	191.8 J/K/mol
350.2 K, Crystal 2	192.5 J/K/mol
363.1 K, Crystal 1	279.6 J/K/mol
366.2 K, Crystal 1	284.9 J/K/mol
367.2 K, Crystal 1	290.4 J/K/mol
368.2 K, Crystal 1	292.8 J/K/mol
378.1 K, Liquid	297.9 J/K/mol
383.2 K, Liquid	300 J/K/mol
385.2 K, Liquid	302.5 J/K/mol
388 K, Liquid	304.1 J/K/mol
393.2 K, Liquid	305 J/K/mol
397.3 K, Liquid	306.3 J/K/mol
403.1 K, Liquid	310.5 J/K/mol
413.2 K, Liquid	312.8 J/K/mol

O[C@H]1CC[C@H](O)CC1 [trans-1,4-cyclohexanediol]
Conditions	molar heat capacity at constant pressure
176.5 K, Crystal	100.6 J/K/mol
183.2 K, Crystal	105.6 J/K/mol
189.1 K, Crystal	109.5 J/K/mol
198.9 K, Crystal	115.4 J/K/mol
206.9 K, Crystal	115.6 J/K/mol
215 K, Crystal	121 J/K/mol
222.2 K, Crystal	124.6 J/K/mol
230.2 K, Crystal	127.3 J/K/mol
238.3 K, Crystal	135.4 J/K/mol
258.3 K, Crystal	142.2 J/K/mol
273.2 K, Crystal	145.6 J/K/mol
278.1 K, Crystal	148.8 J/K/mol and 150.6 J/K/mol and 149 J/K/mol
283.2 K, Crystal	151 J/K/mol and 151.1 J/K/mol
288.2 K, Crystal	154 J/K/mol
293.2 K, Crystal	156.4 J/K/mol and 157.4 J/K/mol
303.2 K, Crystal	167 J/K/mol
308.1 K, Crystal	168.1 J/K/mol and 169.9 J/K/mol
313.2 K, Crystal	173 J/K/mol
323.3 K, Crystal	174 J/K/mol
333.1 K, Crystal	177.4 J/K/mol
343.2 K, Crystal	181.4 J/K/mol and 183.9 J/K/mol
353.1 K, Crystal	187.1 J/K/mol
363.2 K, Crystal	190.5 J/K/mol
373.2 K, Crystal	198 J/K/mol
393.1 K, Liquid	310.7 J/K/mol
403.2 K, Liquid	313 J/K/mol
